Columns and labels:
CD34+ cells [1] = assay: Ex vivo expansion of purified CD34+ cells in liquid culture: cell enumeration and FACS of subsets; format: cell-based, human; details: three weeks, 5, 10 or 20 μM
Description: Sample collection and processing: Samples were obtained from umbilical human cord blood and processed within 12 hours. The blood cells were mixed with 3% Gelatin (Gigma, St. Louis, Mo.) and allowed to sediment for 30 minutes to remove most red blood cells. The leukocyte-rich fraction was harvested, layered on Ficoll-Hypaque (density 1.077 gram/ml; Sigma) and centrifuged at 400 g for 30 minutes at room temperature. The mononuclear cells in the interface layer were then collected, washed three times in phosphate-buffered saline (PBS; Biological Industries), and re-suspended in PBS solution which contains 1% bovine serum albumin (BSA; Sigma). The cells were then incubated at 4° C. for 30 minutes with murine monoclonal anti CD34^+ antibody (0.5 μg/10^6 mononuclear cells) and were thereafter isolated using two cycles of immuno-magnetic separation using the miniMACS CD34^+ Progenitor Cell Isolation Kit (Miltenyi-Biotec, Auburn, Calif.) according to the manufacturer's recommendations. The purity of the CD34^+ cells obtained ranged between 95% and 98%, based on Flow Cytometry evaluation (see below). Ex vivo expansion of progenitor cells: Enriched CD34^+ cell fractions were cultures in 24-well Costar Cell Culture Clusters (Corning Inc., Corning, N.Y.) or in Culture Bags (American Fluoroseal Corp.) with alpha minimal essential medium supplemented with 10% fetal bovine serum (FBS, Biological Industries), at about 1-3×10^4 cells/ml medium. The media were further supplemented with the following human recombinant cytokines (all obtained from Perpo Tech, Inc., Rocky Hill, N.J.): Thrombopoietin (TPO), 50 ng/ml; interleukin 6 (IL-6), 50 ng/ml; FLT-3 ligand, 50 ng/ml; and IL-3, 20 ng/ml. The cultures were incubated at 37° C. in an atmosphere of 5% CO2 in air with extra humidity. At weekly intervals cell cultures were semi-depopulated and supplemented with fresh medium containing the cytokines. Following different incubation periods, the cells were harvested, stained with trypan blue and enumerated. The total cell counts, numbers of CD34^+ cells and subsets thereof, and the number of colony-forming cells (CFU) are presented herein as cumulative numbers, with the assumption that the cultures had not been passaged, namely, the numbers of cells per ml were multiplied by the number of passages performed. Surface antigen analysis: At different time intervals, the cultured cells were harvested, washed with a PBS solution containing 1% BSA and 0.1% sodium azide (Sigma), and stained, at 4° C. for 60 minutes, with FITC-labeled anti CD45 monoclonal antibody and either PE-labeled anti CD34 (HPCA-2) monoclonal or PE-labeled control mouse Ig (all from Immunoquality Products, the Netherlands). The cells were then washed with the same PBS solution and were analyzed by a flow cytometer, as described hereinafter. Flow cytometry analysis: Cells were analyzed and sorted using FACS caliber flow cytometer (Becton-Dickinson, Immunofluorometry systems, Mountain View, Calif.). Cells were passed at a rate of 1,000 cells/second through a 70 μm nozzle, using a saline sheath fluid. A 488 nm argon laser beam at 250 mW served as the light source for excitation. Fluorescence emission of ten thousand cells was measured using a logarithmic amplification and analyzed using CellQuest software. Determination of the density of stem and progenitor subset populations following expansion: Following an incubation period, the CD34^+ cells were re-selected using miniMACS Miltenyi kit. The purity of the positive fraction of selected CD34^+ cells was confirmed by FACS analysis as well as by cell morphology analysis. The density of CD34^+ cells, in proportion (percentage) to total cells, was determined directly via FACS analysis. The densities of CD34^+ subset populations were determined from the purified CD34^+ fraction. Re-selected CD34^+ cells were stained with lineage specific antigens followed by FACS analysis to determine the percentage of the subset populations within the total number of CD34^+ cells. […]

CD34+ cells [2] = assay: Self-renewal potential: colony-forming cells (CFU) from CD34+ cultures; format: cell-based, human; details: five-weeks culture; 10 or 20 μM, added first three weeks; FIG. 9
From the text: Ex vivo expansion of progenitor cells: Enriched CD34^+ cell fractions were cultures in 24-well Costar Cell Culture Clusters (Corning Inc., Corning, N.Y.) or in Culture Bags (American Fluoroseal Corp.) with alpha minimal essential medium supplemented with 10% fetal bovine serum (FBS, Biological Industries), at about 1-3×10^4 cells/ml medium. The media were further supplemented with the following human recombinant cytokines (all obtained from Perpo Tech, Inc., Rocky Hill, N.J.): Thrombopoietin (TPO), 50 ng/ml; interleukin 6 (IL-6), 50 ng/ml; FLT-3 ligand, 50 ng/ml; and IL-3, 20 ng/ml. The cultures were incubated at 37° C. in an atmosphere of 5% CO2 in air with extra humidity. At weekly intervals cell cultures were semi-depopulated and supplemented with fresh medium containing the cytokines. Following different incubation periods, the cells were harvested, stained with trypan blue and enumerated. The total cell counts, numbers of CD34^+ cells and subsets thereof, and the number of colony-forming cells (CFU) are presented herein as cumulative numbers, with the assumption that the cultures had not been passaged, namely, the numbers of cells per ml were multiplied by the number of passages performed. Self-renewal potential evaluations: The self-renewal potential of stem cells was determined in vitro by long-term colony formation. Cells were washed and seeded in a semi-solid methylcellulose medium supplemented with 2 IU/ml erythropoietin ([…] Int., Switzerland), stem cell factor and IL-3, both at 20 ng/ml (Perpo Tech), and G-CSF and GM-CSF, both at 10 ng/ml (Perpo Tech). The resulting colonies were scored after two weeks of incubation at 37° C. in a humidified atmosphere of 5% CO2 in air. Colonies were classified as blast, mixed, erythroid, myeloid, and megakaryocytic, according to their cellular composition.

[Cl][Cu][Cl] [copper chloride, reference compound]
number of total cells vs untreated control (CD34+ cells [1]; FIG. 8a): did not differ significantly
stem cells (CD34+) vs untreated or chelate-treated cultures (CD34+ cells [1]; FIG. 8b): fewer
CD34+ CD38− stem/progenitor subset cells vs untreated or chelate-treated cultures (CD34+ cells [1]; FIG. 8c): fewer
CD34+ Lin− stem/progenitor subset cells vs untreated or chelate-treated cultures (CD34+ cells [1]; FIG. 8d): fewer
colony-forming cells of CD34+ vs untreated or TEPA-Cu treated cultures (CD34+ cells [2]): substantially fewer

Source: patent US7655225B2, “Methods of expanding stem and progenitor cells and expanded cell populations obtained thereby” (Gamida Cell, Ltd., priority 2002, dated 2010)
